In patent US9452986B2, “6-heteroaryloxy- or 6-aryloxy-quinoline-2-carboxamides and method of use” (AbbVie Inc., priority 2014, dated 2016):
pIC50: −log10 of the molar value.

These compounds were tested against recombinant human Nav1.7 (Homo sapiens (Human), UniProt Q15858) (assay: FRET-based membrane potential assay, recombinant human sodium channel Nav1.7). Conditions: HEK293 cells stably expressing recombinant human Nav1.7; veratridine + scorpion venom depolarization; read-out: FRET-Membrane Potential Nav1.7 IC50.
recombinant human Nav1.7, sequence (Q15858 whole entry): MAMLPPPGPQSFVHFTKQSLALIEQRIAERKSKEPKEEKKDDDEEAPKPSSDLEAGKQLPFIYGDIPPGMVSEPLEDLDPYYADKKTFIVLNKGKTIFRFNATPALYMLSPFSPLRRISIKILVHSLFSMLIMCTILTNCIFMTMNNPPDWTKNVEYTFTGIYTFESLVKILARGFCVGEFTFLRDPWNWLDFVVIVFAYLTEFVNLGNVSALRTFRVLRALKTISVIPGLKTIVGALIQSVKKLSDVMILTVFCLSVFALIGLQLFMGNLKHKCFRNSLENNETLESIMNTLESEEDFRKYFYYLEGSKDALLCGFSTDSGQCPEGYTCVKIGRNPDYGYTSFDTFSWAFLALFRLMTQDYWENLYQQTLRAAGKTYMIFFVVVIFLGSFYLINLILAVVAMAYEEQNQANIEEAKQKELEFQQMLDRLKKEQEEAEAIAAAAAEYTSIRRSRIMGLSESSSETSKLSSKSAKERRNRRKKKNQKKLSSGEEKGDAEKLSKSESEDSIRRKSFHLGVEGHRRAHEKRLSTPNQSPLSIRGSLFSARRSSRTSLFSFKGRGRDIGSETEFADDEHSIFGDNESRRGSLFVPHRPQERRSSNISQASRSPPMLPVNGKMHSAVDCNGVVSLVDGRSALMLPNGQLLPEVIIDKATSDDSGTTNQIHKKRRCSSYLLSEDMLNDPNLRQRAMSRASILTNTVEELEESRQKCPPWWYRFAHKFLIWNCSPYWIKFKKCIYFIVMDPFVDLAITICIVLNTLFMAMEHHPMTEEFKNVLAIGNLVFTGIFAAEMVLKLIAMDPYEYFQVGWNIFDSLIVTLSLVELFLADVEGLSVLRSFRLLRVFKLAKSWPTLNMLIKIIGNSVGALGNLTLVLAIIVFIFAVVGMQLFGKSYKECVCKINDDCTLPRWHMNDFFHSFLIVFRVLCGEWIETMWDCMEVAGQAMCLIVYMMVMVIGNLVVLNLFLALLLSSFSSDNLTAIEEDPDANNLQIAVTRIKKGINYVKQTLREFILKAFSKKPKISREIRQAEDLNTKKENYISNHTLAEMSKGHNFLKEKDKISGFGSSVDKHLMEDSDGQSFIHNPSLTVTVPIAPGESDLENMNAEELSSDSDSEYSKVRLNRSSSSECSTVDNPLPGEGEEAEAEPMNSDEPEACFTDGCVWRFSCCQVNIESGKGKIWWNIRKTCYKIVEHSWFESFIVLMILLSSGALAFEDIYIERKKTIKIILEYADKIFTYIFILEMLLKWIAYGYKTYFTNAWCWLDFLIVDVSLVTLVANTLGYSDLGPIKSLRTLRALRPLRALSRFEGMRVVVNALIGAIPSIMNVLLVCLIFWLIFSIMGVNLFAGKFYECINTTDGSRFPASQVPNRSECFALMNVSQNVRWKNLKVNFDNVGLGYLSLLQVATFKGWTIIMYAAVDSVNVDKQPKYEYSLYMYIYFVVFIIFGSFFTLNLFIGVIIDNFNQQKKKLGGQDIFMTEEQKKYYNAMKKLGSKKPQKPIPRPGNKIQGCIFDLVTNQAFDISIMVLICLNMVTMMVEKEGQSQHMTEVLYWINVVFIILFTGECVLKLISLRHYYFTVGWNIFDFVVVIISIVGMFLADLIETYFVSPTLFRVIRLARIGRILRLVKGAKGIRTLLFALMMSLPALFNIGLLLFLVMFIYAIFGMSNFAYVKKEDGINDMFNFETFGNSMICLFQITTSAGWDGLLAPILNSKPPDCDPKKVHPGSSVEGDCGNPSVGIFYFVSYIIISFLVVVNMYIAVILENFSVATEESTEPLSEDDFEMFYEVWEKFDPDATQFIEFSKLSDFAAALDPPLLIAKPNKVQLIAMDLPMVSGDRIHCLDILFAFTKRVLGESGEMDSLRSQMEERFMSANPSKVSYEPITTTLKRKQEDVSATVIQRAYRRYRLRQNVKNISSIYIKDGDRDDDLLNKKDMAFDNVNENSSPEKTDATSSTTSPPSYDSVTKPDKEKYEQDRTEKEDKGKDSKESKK
Type: cell-based
Description: FRET-Based Membrane Potential Assays.
Recombinant, Human Sodium Channel, Nav1.7.
On the day of the assay, medium was removed by aspiration, and cells were washed with assay buffer [HBSS (Invitrogen, Carlsbad, Calif.) containing 20 mM HEPES (Invitrogen, Carlsbad, Calif.)]. […] Cells were incubated for 40 minutes at room temperature in the dark. […] The cells were incubated for 90 minutes at room temperature in the dark. Fluorescence readings were made using a FLIPR®^TETRA (Molecular Devices, Sunnyvale Calif.) equipped with voltage-sensor probe optics. At the start of each experiment the optimal (EC80) concentration of depolarizing agent (veratridine) was determined by testing a dilution curve of assay buffer containing veratridine (Sigma-Aldrich, St. Louis, Mo.) and 1 mg/mL scorpion venom (SVqq, from Leiurus quinquestriatus; Sigma-Aldrich, St. Louis, Mo.). […] Test compounds in the daughter plate were diluted to (˜3×) solutions in assay buffer immediately before assaying. Using the FLIPR®^TETRA, 20 μL of the (3×) compound solutions were first added to the cells, then 20 μL of depolarizing solution (3×EC80 veratridine+SVqq) were added 3 minutes later to activate the channel. […] IC50 values were calculated from curve fits of the ratio data using a four-parameter logistic Hill equation (Accelrys Assay Explorer 3.3 Client, Accelrys, San Diego, Calif.) with percent inhibition plotted against compound concentration.
`N#Cc1ccc(Oc2ccc3nc(C(=O)N[C@H]4CCC[C@H](O)C4)ccc3c2)cc1` [Example 132, 6-(4-cyanophenoxy)-N-[(1S,3S)-3-hydroxycyclohexyl]quinoline-2-carboxamide] showed a pIC50 of 5.57. In the case of `N#Cc1ccc(Oc2ccc3nc(C(=O)N[C@H]4CC[C@@H](O)CC4)ccc3c2)cc1` [Example 133, 6-(4-cyanophenoxy)-N-(cis-4-hydroxycyclohexyl)quinoline-2-carboxamide], the pIC50 was 5.93. `N#Cc1ccc(Oc2ccc3nc(C(=O)N4CCNC(=O)C4)ccc3c2)cc1` [Example 137, 4-({2-[(3-oxopiperazin-1-yl)carbonyl]quinolin-6-yl}oxy)benzonitrile] was tested, and the pIC50 was 5.08. Work on `N#Cc1ccc(Oc2ccc3nc(C(=O)N4CCC(N5CCOCC5)CC4)ccc3c2)cc1` [Example 138, 4-[(2-{[4-(morpholin-4-yl)piperidin-1-yl]carbonyl}quinolin-6-yl)oxy]benzonitrile] yielded a pIC50 of 5.61. With `N#Cc1ccc(Oc2ccc3nc(C(=O)N[C@@H]4CCOc5ccc(F)cc54)ccc3c2)cc1` [Example 139, 6-(4-cyanophenoxy)-N-[(4R)-6-fluoro-3,4-dihydro-2H-chromen-4-yl]quinoline-2-carboxamide] the pIC50 was < 4.70. `CC(C)(C)N1CCN(C(=O)c2ccc3cc(Oc4ccc(C#N)cc4)ccc3n2)CC1` [Example 140, 4-({2-[(4-tert-butylpiperazin-1-yl)carbonyl]quinolin-6-yl}oxy)benzonitrile] showed a pIC50 of 6.25. `CC1(C)C[C@@H](NC(=O)c2ccc3cc(Oc4ccc(C#N)cc4)ccc3n2)c2cc(F)ccc2O1` [Example 141, 6-(4-cyanophenoxy)-N-[(4R)-6-fluoro-2,2-dimethyl-3,4-dihydro-2H-chromen-4-yl]quinoline-2-carboxamide] was tested, and the pIC50 was < 4.70. Compound `CC(C)[C@H]1CN(C(=O)c2ccc3cc(Oc4ccc(C#N)cc4)ccc3n2)CCN1` [Example 142, 4-[(2-{[(3S)-3-isopropylpiperazin-1-yl]carbonyl}quinolin-6-yl)oxy]benzonitrile] has a pIC50 of 6.12. In the case of `CN1CCC(NC(=O)c2ccc3cc(Oc4ccc(C#N)cc4)ccc3n2)C1=O` (centres unmarked) [Example 143, 6-(4-cyanophenoxy)-N-(1-methyl-2-oxopyrrolidin-3-yl)quinoline-2-carboxamide], the pIC50 was 5.97. For `N#Cc1ccc(Oc2ccc3nc(C(=O)NCc4ncco4)ccc3c2)cc1` [Example 144, 6-(4-cyanophenoxy)-N-(1,3-oxazol-2-ylmethyl)quinoline-2-carboxamide], the pIC50 was 6.08. `CNC(=O)CNC(=O)c1ccc2cc(Oc3ccc(C#N)cc3)ccc2n1` [Example 145, 6-(4-cyanophenoxy)-N-[2-(methylamino)-2-oxoethyl]quinoline-2-carboxamide] gave a pIC50 of 5.51. For `N#Cc1ccc(Oc2ccc3nc(C(=O)NCC(N)=O)ccc3c2)cc1` [Example 146, N-(2-amino-2-oxoethyl)-6-(4-cyanophenoxy)quinoline-2-carboxamide], the pIC50 was 5.10. Compound `N#Cc1ccc(Oc2ccc3nc(C(=O)NCCS(N)(=O)=O)ccc3c2)cc1` [Example 147, 6-(4-cyanophenoxy)-N-(2-sulfamoylethyl)quinoline-2-carboxamide] has a pIC50 of 5.37. For `N#Cc1ccc(Oc2ccc3nc(C(=O)N4CCS(=O)(=O)CC4)ccc3c2)cc1` [Example 148, 4-({2[(1,1-dioxidothiomorpholin-4-yl)carbonyl]quinolin-6-yl}oxy)benzonitrile], the pIC50 was 4.92.

Same assay, conditions: read-out: FRET-Membrane Potential Nav1.7 IC50
Compound `CC(O)C(C)NC(=O)c1ccc2cc(Oc3ccc(C#N)cc3)ccc2n1` (centres unmarked) [Example 134, 6-(4-cyanophenoxy)-N-(3-hydroxybutan-2-yl)quinoline-2-carboxamide] has a pIC50 of 5.63. `CC(C)C(O)CNC(=O)c1ccc2cc(Oc3ccc(C#N)cc3)ccc2n1` (centres unmarked) [Example 135, 6-(4-cyanophenoxy)-N-(2-hydroxy-3-methylbutyl)quinoline-2-carboxamide] gave a pIC50 of 6.16. `N#Cc1ccc(Oc2ccc3nc(C(=O)NC4CCS(=O)(=O)C4)ccc3c2)cc1` (centres unmarked) [Example 136, 6-(4-cyanophenoxy)-N-(1,1-dioxidotetrahydrothiophen-3-yl)quinoline-2-carboxamide] was tested, and the pIC50 was 6.27.
